{"source": "the supplement of paper PMC10307832", "experiment_in_all_cases": "relative viability (nuclei count vs DMSO), 5 days (fraction); higher = more cells survive", "key": {"[1]": {"compound": "CC1(C)CCC(CN2CCN(c3ccc(C(=O)NS(=O)(=O)c4ccc(NCC5CCOCC5)c([N+](=O)[O-])c4)c(Oc4cnc5[nH]ccc5c4)c3)CC2)=C(c2ccc(Cl)cc2)C1 [Venetoclax]", "procedure,_shortened": "(§1)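 Acceptance criteria were a control CV below 25% and at least one doubling per plate. Lung cancer cell lines in 1536-well plates got five library-drug doses (not always all listed) √10 apart by pinning and were left 5 days with no medium change. Viability divides treated-well nuclei by vehicle-well nuclei and is the median across plates. Nuclei were counted by MetaXpress from 4× Hoechst images.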"}, "[2]": {"compound": "Cn1cnc2c(F)c(Nc3ccc(Br)cc3Cl)c(C(=O)NOCCO)cc21 [Selumetinib]", "procedure,_shortened": "as §1"}, "[3]": {"compound": "Cn1cnc2c(F)c(Nc3ccc(Br)cc3Cl)c(C(=O)NOCCO)cc21 [Selumetinib] + C[C@]1(O)C[C@@H](c2nc(-c3ccc4ccc(-c5ccccc5)nc4c3)c3c(N)nccn32)C1 [Linsitinib] (partner 1 µM)", "procedure,_shortened": "(§2)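 Relative viability divides the nuclei count in treated wells by that in vehicle wells. Lung cancer cell lines were seeded in 1536-well plates, dosed by pin tool the next day, and fixed and stained after 5 days in one step with final 0.05% Triton X-100, 1% formaldehyde and 1 ug/ml Hoechst. Dosing was a single drug or a fixed anchor-drug dose plus five library-drug doses (not always all listed) in √10 steps, and values are medians of duplicate plates imaged at 4×.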"}, "[4]": {"compound": "CC1(C)CCC(CN2CCN(c3ccc(C(=O)NS(=O)(=O)c4ccc(NCC5CCOCC5)c([N+](=O)[O-])c4)c(Oc4cnc5[nH]ccc5c4)c3)CC2)=C(c2ccc(Cl)cc2)C1 [Venetoclax] + Nc1ncn([C@H]2C[C@H](O)[C@@H](CO)O2)c(=O)n1 [Decitabine] (partner 2 µM)", "procedure,_shortened": "as §2"}}}
{"cell line": "UMC-11", "values": [{"measurement": "relative viability", "setting": "[1]; 0.01 µM", "value": 0.958}, {"measurement": "relative viability", "setting": "[1]; 0.03162 µM", "value": 1}, {"measurement": "relative viability", "setting": "[1]; 0.1 µM", "value": 0.901}, {"measurement": "relative viability", "setting": "[1]; 0.3162 µM", "value": 0.944}, {"measurement": "relative viability", "setting": "[1]; 1 µM", "value": 0.927}, {"measurement": "relative viability", "setting": "[2]; 0.02 µM", "value": 0.936}, {"measurement": "relative viability", "setting": "[2]; 0.06325 µM", "value": 0.909}, {"measurement": "relative viability", "setting": "[2]; 0.2 µM", "value": 1.01}, {"measurement": "relative viability", "setting": "[2]; 0.6325 µM", "value": 1.04}, {"measurement": "relative viability", "setting": "[3]; first compound 0.02 µM", "value": 0.965}, {"measurement": "relative viability", "setting": "[3]; first compound 0.06325 µM", "value": 1.08}, {"measurement": "relative viability", "setting": "[3]; first compound 0.2 µM", "value": 0.972}, {"measurement": "relative viability", "setting": "[3]; first compound 0.6325 µM", "value": 0.984}, {"measurement": "relative viability", "setting": "[4]; first compound 0.01 µM", "value": 0.705}, {"measurement": "relative viability", "setting": "[4]; first compound 0.03162 µM", "value": 0.595}, {"measurement": "relative viability", "setting": "[4]; first compound 0.1 µM", "value": 0.48}, {"measurement": "relative viability", "setting": "[4]; first compound 0.3162 µM", "value": 0.686}, {"measurement": "relative viability", "setting": "[4]; first compound 1 µM", "value": 0.608}]}
